# Entries after “also recorded” stand apart in the source; their conditions may differ. Structures can show the parent of a compound that is named as a salt.
# Columns and labels:
# [1] = system: TLR4 ligand LPS induced TNF; assay: LPS induced TNF production in primary human macrophages (ELISA); assay type: cell-based; conditions: 30 minutes preincubation
# Procedure: (§1) Macrophages or RA synovial membrane cell cultures were stimulated with 10 ng/ml chloroform-extracted LPS, 10 ng/ml Pam3, 10 ng/ml Flagellin, 10 ng/ml Malp-2, 20 μg/ml poly IC, 2 μM CpG (human/mouse) or 1 μg/ml R-848 in complete media for 6 h. Supernatants from RA cultures were harvested after 24 hours. All reagents other than LPS were free from LPS contamination as assessed using the limulus amebocyte lysate (LAL) assay from Cambrex (USA).
# (§2) Sandwich ELISAs were employed to measure TNF, (Pharmingen, UK). IP-10 (R&D, USA) and IL-1β (Bioscource. USA). Absorbance was read on a spectrophotometric ELISA plate reader (Labsystems Multiscan Biochromic) and analyzed using Ascent software V2.6 (Thermo Labsystems, Cambridge, United Kingdom). All results are expressed as the mean cytokine concentration±SD obtained from triplicate cultures per condition.
# (§3) RA synovial membrane cells were isolated from patients undergoing joint replacement surgery as previously described (Foxwell et al., Proc. Natl. Acad. Sci. USA 95, 8211-8215, 1998). All patients gave written informed consent and the study was approved by the local ethics committee. Immediately after isolation, cells were used for mRNA analysis, stained by FACS or cultured at 1×10^5 cells/well in 96-well tissue culture plates (Falcon, UK) in RPMI 1640 containing 10% (v/v) FBS and 100 U/ml penicillin/streptomycin. Primary human synovial fibroblasts were cultured as described previously (Butler et al. Eur. Cytokine Netw. 5:441-8, 1994). Peripheral blood monocytes were isolated and cultured as previously described (Foxwell et al. Proc. Natl. Acad. Sci. USA 95, 8211-8215, 1998). Macrophages were derived from monocytes after differentiation for 4 days with 100 ng/ml M-CSF (PeproTech, UK). The mouse macrophage cell line RAW 264.7 was maintained in Dulbecco's modified Eagle's medium supplemented with 10% fetal bovine serum.
# Primary human macrophages, murine RAW 264.7 cells and synovial fibroblasts were incubated with 30 μg/ml mianserine hydrochloride for 30 minutes and then stimulated for 6 hours with TLR ligands (R-848, Pam3, LPS, flagellin, malp-2, poly IC or CpG).
# [2] = system: TLR3 ligand poly IC induced IP-10; assay: Poly IC induced IP-10 production in human macrophages (ELISA); assay type: cell-based
# Procedure: as §1, §2, §3
# Primary human macrophages were incubated with 5 μg/ml of GBR12909, 5 μg/ml of clotrimazole, 5 μg/ml of Propidium iodide (PI), 30 μg/ml mianserine hydrochloride and 30 μg/ml promazine hydrochloride for 30 minutes and then stimulated for 6 hours with the TLR4 ligand LPS (FIG. 7A), with R848 a TLR7/8 ligand (FIG. 7, Graph B), or with poly IC a TLR3 ligand (FIG. 7C). Supernatants were collected and measured for TNF or IP-10.
# [3] = system: RA synovial membrane cultures; assay: Spontaneous cytokine release from RA synovial membrane cultures (ELISA); assay type: cell-based, human
# [4] = system: TLR7/8 ligand R-848 induced TNF; assay: R-848 induced TNF production in primary human macrophages (ELISA); conditions: 1 μg/ml R-848 for 6 hours
# [5] = system: rheumatoid synovial membrane cultures; assay: TNF production in rheumatoid synovial membrane cultures stimulated with TLR ligands (ELISA); assay type: cell-based, human
# Procedure: as §1, §2, §3
# To check if these TLRs were functional in synovial membrane cultures, cells were stimulated with the appropriate TLR ligands at the time of seeding the cells (FIG. 5, Graph C). […]
# [6] = system: RA synovial membrane cultures; assay: Spontaneous cytokine release from RA synovial membrane cultures (ELISA); assay type: cell-based, human; conditions: 10 μg/ml, 20 μg/ml and 30 μg/ml
# Procedure: Macrophages or RA synovial membrane cell cultures were stimulated with 10 ng/ml chloroform-extracted LPS, 10 ng/ml Pam3, 10 ng/ml Flagellin, 10 ng/ml Malp-2, 20 μg/ml poly IC, 2 μM CpG (human/mouse) or 1 μg/ml R-848 in complete media for 6 h. Supernatants from RA cultures were harvested after 24 hours.
# as §2, §3
# Rheumatoid arthritis synovial membrane cells were cultured for 24 hours in the presence of media alone or media containing 30 μg/ml mianserine hydrochloride. Supernatants were harvested and levels of cytokines (A) TNF (n=16) were measured by ELISA. […] A students paired t-test was used to analyse the data.
# [7] = 5 μg/ml, 30 minutes preincubation
# [8] = 30 μg/ml, 10 ng/ml LPS for 6 hours
# [9] = dose dependant, best inhibition at 100 μM, 24 hours, n=4
compound,measurement,setting,value
CC[N+](C)(CC)CCC[n+]1c(-c2ccccc2)c2cc(N)ccc2c2ccc(N)cc21.[I-].[I-] [Propidium iodide],inhibition of LPS induced TNF production,"[1]; 5 μg/ml, LPS for 6 hours",None of the drugs tested were able to inhibit
same,inhibition of Poly IC induced IP-10 production,"[2]; 5 μg/ml, poly IC for 6 hours",able to inhibit
same,inhibition of spontaneous TNF production,"[3]; 5 μg/ml, 24 hours",did not lead to a significant decrease
same,inhibition of R-848 induced TNF production,[4]; [7],only the serotonin receptor antagonists (mianserine hydrochloride and promazine hydrochloride) were able to suppress
"CCOCc1nc2c(N)nc3ccccc3c2n1CC(C)(C)O [R-848, resiquimod]",TNF production increased on stimulation,"[5]; 1 μg/ml, TLR7/8 ligand, P<0.0001, n=11",515%±76
"Clc1ccccc1C(c1ccccc1)(c1ccccc1)n1ccnc1 [clotrimazole, Clotrimazole]",inhibition of LPS induced TNF production,"[1]; 5 μg/ml, LPS for 6 hours",None of the drugs tested were able to inhibit
same,inhibition of Poly IC induced IP-10 production,"[2]; 5 μg/ml, poly IC for 6 hours",able to inhibit
same,inhibition of spontaneous TNF production,"[3]; 5 μg/ml, 24 hours",did not lead to a significant decrease
same,inhibition of R-848 induced TNF production,[4]; [7],only the serotonin receptor antagonists (mianserine hydrochloride and promazine hydrochloride) were able to suppress
CC(C)Cn1cnc2c(N)nc3ccccc3c21 [imiquimod],stimulation of cytokine release over spontaneous levels,"[5]; 1 μg/ml, TLR7 ligand",unable to stimulate further release of cytokines
CN1C[C@H](CNC(=O)OCc2ccccc2)C[C@@H]2c3cccc4c3c(cn4C)C[C@H]21 [metergoline],inhibition of spontaneous TNF production,"[3]; 10 μg/ml, 24 hours",able to inhibit
same,inhibition of R-848 induced TNF production,"[4]; 10 μg/ml, 30 minutes preincubation",able to inhibit
CSc1ccc2c(c1)C(N1CCN(C)CC1)Cc1ccccc1S2 (stereo not shown) [methiothepin],inhibition of spontaneous TNF production,"[3]; 5 μg/ml, 24 hours",able to inhibit
same,inhibition of R-848 induced TNF production,[4]; [7],able to inhibit
Cc1nccn1CC1CCc2c(c3ccccc3n2C)C1=O (stereo not shown) [ondansetron],inhibition of LPS induced TNF production,[1]; [8],not
same,inhibition of spontaneous TNF production,"[3]; 20 μg/ml, 24 hours",able to inhibit; also recorded: significant inhibition
same,inhibition of R-848 induced TNF production,"[4]; 30 μg/ml, 30 minutes preincubation",significantly inhibits
same,inhibition of R-848 induced TNF production,"[4]; 30 μg/ml, 30 minutes preincubation, listed as Ondansetron",able to inhibit
same,"inhibition of R-848 induced TNF production, dose dependence","[4]; 5, 10 or 20 μg/ml, 30 minutes preincubation",dose dependant inhibition
CN(C)CCCN1c2ccccc2Sc2ccccc21 [promazine hydrochloride],"inhibition of TNF, dose dependence",[6],dose dependently inhibited
same,inhibition of LPS induced TNF production,[1]; [8],None of the drugs tested were able to inhibit
same,inhibition of Poly IC induced IP-10 production,"[2]; 30 μg/ml, 20 μg/ml poly IC for 6 hours, hydrochloride",inhibits TLR3 induced signalling; also recorded: able to inhibit
same,inhibition of R-848 induced TNF production,"[4]; 30 μg/ml, 30 minutes preincubation, hydrochloride",able to suppress
same,inhibition of R-848 induced TNF production,"[4]; 30 μg/ml, 30 minutes preincubation, listed as Promazine hydrochloride, hydrochloride",decreased TNF production
Cc1nc2sccn2c(=O)c1CCN1CCC(=C(c2ccc(F)cc2)c2ccc(F)cc2)CC1 [ritanserin],inhibition of spontaneous TNF production,"[3]; 5 μg/ml, 24 hours",able to inhibit
same,inhibition of R-848 induced TNF production,[4]; [7],able to inhibit
"NCCc1c[nH]c2ccc(O)cc12 [serotonin (5-HT), 5-hydroxytryptamine]",inhibition of R-848 induced TNF production (TLR8 signaling),"[4]; 10 or 100 μM, 30 minute preincubation",not inhibited
Chloroquine diphosphate salt,inhibition of spontaneous IL-1 release,[3]; [9],inhibited
same,inhibition of spontaneous TNF release,[3]; [9],inhibited
Poly IC,TNF production increased on stimulation,"[5]; 20 μg/ml, TLR3 ligand, P=0.0002, n=12",334%±60
ketanserine tartrate,"inhibition of TNF, dose dependence","[3]; 10 μM, 100 μM",dose dependently inhibited
